Where two headings read alike, the source gives them in different places.
Columns and labels:
[1] = Study CL-005 in subjects with onychomycosis, plasma PK; format: in vivo; settings: human; for AUC(0-t): read-out: AUC0-8; for concentration at 12 weeks: after 12 weeks; for concentration at 12 weeks / concentration at 24 weeks: read-out: plasma exposure; for concentration at 24 weeks: after 24 weeks
Experimental: Within each treatment group, oteseconazole plasma exposures increased throughout the dosing regimen from Day 1 to Week 12 or 24. […] Mean Cmax and AUC0-8 values after the Day 14 dose (completion of the loading dose phase of the study) were similar for the 300 mg 12-week and 300 mg 24-week treatment groups, and for the 600 mg 12-week and 600 mg 24-week treatment groups, as expected.

[2] = Study CL-012 plasma concentrations; format: in vivo; settings: human
Experimental: Oteseconazole mean (SD) plasma concentration increased with dosing for 12 weeks, reaching a maximum concentration of 3605.8 (1518.08) μg/L at Week 12. At the end of dosing, there was a slow decrease in oteseconazole plasma concentration, reaching 1122.0 (656.14) μg/L by Week 48 (FIG. 5). Following the loading dose regimen of 150 mg oteseconazole QD for 7 days, the mean (SD) oteseconazole plasma concentration at Day 14 was 1785.5 (747.75) μg/L.

Study CL-017 plasma PK = format: in vivo, human; settings: for Tmax: Median
Experimental: Oteseconazole mean (SD) plasma concentration during the intense PK sampling period on Day 1 peaked at 4 hours postdose (1425.8 [672.05] μg/L) and decreased slightly by 8 hours postdose (1301.06 [782.76] μg/L). On Day 2, mean (SD) oteseconazole plasma concentrations were 697.7 (264.40) μg/L at predose, then increased to 1895.0 (640.00) μg/L at 4 hours postdose, and decreased to 1555.6 (392.68) μg/L by 8 hours postdose (FIG. 6).
Over the period of Day 14 to Week 50, oteseconazole plasma concentrations were measured at Day 14, Week 14 (end of dosing), and Week 50 (end of follow-up period). Oteseconazole mean (SD) plasma concentration increased from 1396.9 (709.00) μg/L at Day 14 to 2679.3 (1318.94) μg/L at Week 14 before decreasing to 873.4 (534.49) μg/L at Week 50 (FIG. 7).
Median Tmax occurred at 4.00 hours on Day 2; however, Tmax occurred in a narrower range (2.00 to 8.00 hours) compared with that observed on Day 1. The AUC0-8 was 7570 h*μg/L and 11700 h*μg/L, for Day 1 and Day 2, respectively (Table 17).

acute VVC episodes = experiment: Study CL-017 efficacy versus fluconazole, acute VVC episodes; format: in vivo, human
[3] = 300 mg, Day 14, Low Dose (300 mg), 12 weeks
[4] = 300 mg, Day 14, Low Dose (300 mg), 24 weeks
[5] = 600 mg, Day 14, High Dose (600 mg), 12 weeks
[6] = 600 mg, Day 14, High Dose (600 mg), 24 weeks

Cmax [1, 3]: 5120 ng/mL
AUC(0-t) [1, 3]: 36700 ng·h/mL
Cmax [1, 4]: 5510 ng/mL
AUC(0-t) [1, 4]: 40100 ng·h/mL
Cmax [1, 5]: 8290 ng/mL
AUC(0-t) [1, 5]: 59700 ng·h/mL
Cmax [1, 6]: 8390 ng/mL
AUC(0-t) [1, 6]: 61600 ng·h/mL
Tmax ([1]; Day 14, High Dose (600 mg), 12 weeks): 5 h
Tmax ([1]; Day 14, Low Dose (300 mg), 12 weeks): 5 h
concentration at 12 weeks ([1]; 300 mg 12-week treatment group): 6750 ng/mL
concentration at 12 weeks ([1]; 600 mg 12-week treatment group): 12300 ng/mL
concentration at 24 weeks ([1]; 300 mg 24-week treatment group): 9230 ng/mL
concentration at 24 weeks ([1]; 600 mg 24-week treatment group): 15600 ng/mL
concentration at 12 week ([2]; 150 mg, Week 12, maximum concentration, read-out: mean (SD) plasma concentration): 3610 ng/mL
concentration at 48 week ([2]; 150 mg, Week 48, read-out: mean (SD) plasma concentration): 1120 ng/mL
concentration at 14 day ([2]; Day 14, after loading 150 mg QD for 7 days, read-out: mean (SD) plasma concentration): 1790 ng/mL
Clast (Study CL-017 plasma PK; 3 × 150 mg (450 mg), Day 2, Geometric Mean): 1510 ng/mL
AUC(0-t) (Study CL-017 plasma PK; human, plasma, oral, 450 mg, 3 × 150 mg (450 mg), Day 2, Geometric Mean, read-out: AUC0-8): 11700 ng·h/mL
concentration at 4 h (Study CL-017 plasma PK; human, plasma, oral, 450 mg, Day 2, 4 hours postdose, read-out: mean (SD) plasma concentration): 1900 ng/mL
concentration at 8 h (Study CL-017 plasma PK; human, plasma, oral, 450 mg, Day 2, 8 hours postdose, read-out: mean (SD) plasma concentration): 1560 ng/mL
AUC(0-t) (Study CL-017 plasma PK; human, plasma, oral, 450 mg, Day 2, as given in text, read-out: AUC0-8): 11700 ng·h/mL
AUC(0-t) (Study CL-017 plasma PK; human, plasma, oral, 600 mg, 600 mg dose on Day 1, as given in text, read-out: AUC0-24): 20600 ng·h/mL
AUC(0-t) (Study CL-017 plasma PK; human, plasma, oral, 600 mg, 4 × 150 mg (600 mg), Day 1, Geometric Mean, N 8, read-out: AUC0-24): 20600 ng·h/mL
AUC(0-t) (Study CL-017 plasma PK; human, plasma, oral, 600 mg, 4 × 150 mg (600 mg), Day 1, Geometric Mean, read-out: AUC0-8): 7570 ng·h/mL
concentration at 24 h (Study CL-017 plasma PK; human, plasma, oral, 600 mg, 4 × 150 mg (600 mg), Day 1, Geometric Mean, read-out: Clast): 651 ng/mL
concentration at 24 h (Study CL-017 plasma PK; human, plasma, oral, 600 mg, 24 hours after 600 mg Day 1 dose (predose Day 2), read-out: plasma concentrations, range across subjects): 354 to 1150 ng/mL
concentration at 4 h (Study CL-017 plasma PK; human, plasma, oral, 600 mg, Day 1, 4 hours postdose, read-out: mean (SD) plasma concentration): 1430 ng/mL
concentration at 8 h (Study CL-017 plasma PK; human, plasma, oral, 600 mg, Day 1, 8 hours postdose, read-out: mean (SD) plasma concentration): 1300 ng/mL
AUC(0-t) (Study CL-017 plasma PK; human, plasma, oral, 600 mg, Day 1, as given in text, read-out: AUC0-8): 7570 ng·h/mL
concentration at 24 h (Study CL-017 plasma PK; human, plasma, oral, 600 mg, Day 2, predose, read-out: mean (SD) plasma concentration): 698 ng/mL
concentration at 14 day (Study CL-017 plasma PK; human, plasma, oral, Day 14, read-out: mean (SD) plasma concentration): 1400 ng/mL
concentration at 14 week (Study CL-017 plasma PK; human, plasma, oral, Week 14 (end of dosing), read-out: mean (SD) plasma concentration): 2680 ng/mL
concentration at 50 week (Study CL-017 plasma PK; human, plasma, oral, Week 50 (end of follow-up period), read-out: mean (SD) plasma concentration): 873 ng/mL
Cmax (Study CL-017 plasma PK; human, plasma, oral, 3 × 150 mg (450 mg), Day 2, Geometric Mean): 2010 ng/mL
Tmax (Study CL-017 plasma PK; human, plasma, oral, 3 × 150 mg (450 mg), Day 2): 4 h
Cmax (Study CL-017 plasma PK; human, plasma, oral, 4 × 150 mg (600 mg), Day 1, Geometric Mean): 1620 ng/mL
Tmax (Study CL-017 plasma PK; human, plasma, oral, 4 × 150 mg (600 mg), Day 1): 4.01 h
SMILES: O[C@@](Cn1cnnn1)(c1ccc(F)cc1F)C(F)(F)c1ccc(-c2ccc(OCC(F)(F)F)cc2)cn1 [Oteseconazole, oteseconazole]
efficacy of enhanced loading dose compared with fluconazole (acute VVC episodes; 600 mg Day 1 and 450 mg Day 2 versus fluconazole three 150 mg doses 72 hours apart): noninferior to fluconazole
average percentage of subjects with 1 or more culture-verified acute VVC episodes (acute VVC episodes; including subjects who had a recurrence during the Induction Phase): 5.1%

— patent publication US20240398773A1, “COMPOSITIONS COMPRISING OTESECONAZOLE” (Mycovia Pharmaceuticals, Inc., priority 2021, published 2024)
